7 compounds from patent US10364245B2 (CHIESI FARMACEUTICI S.p.A., priority 2017, dated 2019) can be followed below.

Counter-ions that a name gives are not always drawn.

For test [1], the system named is Peripheral Blood Mononuclear Cells (PBMCs), TNFα release. Briefly: LPS-stimulated PBMC TNFα release assay. Type of test: cell-based. To be noted: human PBMC, LPS (10 ng/ml), 18 h, compound 1 h before LPS; read-out: LPS-stimulated PBMC TNFα release inhibition. Here is the method: LPS-Stimulated PBMC TNFα Release Assay
Peripheral Blood Mononuclear Cells (PBMCs) were isolated from healthy human volunteer blood using a standard density gradient centrifugation technique. Citrated blood was placed onto Histopaque™ and centrifuged. The PBMCs were removed from the density gradient interface and washed in phosphate buffered saline (PBS). The PBMCs were suspended in RPMI 1640 medium (without serum), dispensed into a 96-well plate and incubated at 37° C. for 3 h in a humidified incubator. After incubation, the medium was replaced (with medium containing 1% foetal bovine serum) and the plate incubated at 37° C., for 1 h, in the presence of test compound or the appropriate vehicle. LPS (10 ng/ml), or an appropriate vehicle control, was then added to the cells and the plate returned to the incubator for 18 h. Cell-free supernatants were removed and assayed for TNFα levels using MSD plates on the Sector Imager 6000 (MesoScale).
A dose response curve to each test compound was performed and the effect of compound in each experiment was expressed as a percentage inhibition of the control TNFα release. Dose response curves were plotted and compound potency (IC50) was determined. Compounds were tested in at least three separate experiments.

A further test deals with T1, p38 alpha (Homo sapiens, UniProt Q16539).
T1 construct: purchased Invitrogen PV3304
T1 sequence (Q16539 whole entry): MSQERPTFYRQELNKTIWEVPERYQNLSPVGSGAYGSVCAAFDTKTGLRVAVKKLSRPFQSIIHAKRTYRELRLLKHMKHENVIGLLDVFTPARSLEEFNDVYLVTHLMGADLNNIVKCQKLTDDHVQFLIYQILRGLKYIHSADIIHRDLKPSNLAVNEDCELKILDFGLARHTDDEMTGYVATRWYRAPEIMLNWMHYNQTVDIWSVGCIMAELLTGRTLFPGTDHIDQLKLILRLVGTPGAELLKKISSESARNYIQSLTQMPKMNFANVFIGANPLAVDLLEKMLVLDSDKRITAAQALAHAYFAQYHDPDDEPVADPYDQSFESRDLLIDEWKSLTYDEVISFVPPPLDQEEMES
Briefly: P38 alpha enzyme inhibition assay (Alphascreen kinase activity assay). Type of test: biochemical. To be noted: 100 pM p38 alpha, 2 hours preincubation at 25° C., 250 μM ATP, ATF-2 fusion protein; read-out: p38α inhibition. In a few lines:
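Phosphorylation of ATF-2 fusion protein (0.3 μg/ml) read by AlphaScreen with anti-phospho-ATF2 antibody after 1 h kinase reaction at 25 °C, initiated by 250 μM ATP. Compounds first incubated 2 h at 25 °C with 100 pM p38 alpha in pH 7.5 HEPES buffer, 1% DMSO. IC50 derived from concentration-response data.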

For the compound `CN(CCO)CCNC(=O)c1nc(NC(=O)N[C@H]2CC[C@@H](Oc3ccc4nnc([C@@H]5COCCN5C)n4c3)c3ccccc32)cc(C(C)(C)C)n1` [Example 215, 4-(tert-Butyl)-N-(2-((2-hydroxyethyl)(methyl)amino)ethyl)-6-(3-((1S,4R)-4-((3-((R)-4-methylmorpholin-3-yl)-[1,2,4]triazolo[4,3-a]pyridin-6-yl)oxy)-1,2,3,4-tetrahydronaphthalen-1-yl)ureido)pyrimidine-2-carboxamide], the IC50 in test [1] was greater than 5 nM; at p38 alpha it was 1 to 10 nM.
The like results for `CCC(CC)c1nnc2ccc(O[C@@H]3CC[C@H](NC(=O)Nc4cc(C(C)(C)C)nc(C(=O)NCC(C)(C)N5CC(OC)C5)n4)c4ccccc43)cn12` [Example 174, 4-(tert-butyl)-N-(2-(3-methoxyazetidin-1-yl)-2-methylpropyl)-6-(3-((1S,4R)-4-((3-(pentan-3-yl)-[1,2,4]triazolo[4,3-a]pyridin-6-yl)oxy)-1,2,3,4-tetrahydronaphthalen-1-yl)ureido)pyrimidine-2-carboxamide formate salt] were, in that order, 1 to 5 nM and less than 1 nM.
The matching figures for `CN(C)CCNC(=O)c1nc(NC(=O)N[C@H]2CC[C@@H](Oc3ccc4nnc([C@]5(C)CCCN5)n4c3)c3ccccc32)cc(C(C)(C)C)n1` [Example 34, 4-(tert-Butyl)-N-(2-(dimethylamino)ethyl)-6-(3-((1S,4R)-4-((3-((S)-2-methylpyrrolidin-2-yl)-[1,2,4]triazolo[4,3-a]pyridin-6-yl)oxy)-1,2,3,4-tetrahydronaphthalen-1-yl)ureido)pyrimidine-2-carboxamide]: greater than 5 nM and 1 to 10 nM.
The matching figures for `CNC(=O)c1cc(NC(=O)N[C@H]2CC[C@@H](Oc3ccc4nnc([C@]5(C)CCCN5C)n4c3)c3ccccc32)cc(C(C)(C)C)n1` [Example 53, 6-(tert-Butyl)-4-(3-((1S,4R)-4-((3-((S)-1,2-dimethylpyrrolidin-2-yl)-[1,2,4]triazolo[4,3-a]pyridin-6-yl)oxy)-1,2,3,4-tetrahydronaphthalen-1-yl)ureido)-N-methylpicolinamide]: 1 to 5 nM and 1 to 10 nM.
On to `CCC(C)(C)c1nnc2ccc(O[C@@H]3CC[C@H](NC(=O)Nc4cc(C(=O)NCCN(C)C)nc(C(C)(C)C)c4)c4ccccc43)cn12` [Example 206, 6-(tert-butyl)-N-(2-(dimethylamino)ethyl)-4-(3-((1S,4R)-4-((3-(tert-pentyl)-[1,2,4]triazolo[4,3-a]pyridin-6-yl)oxy)-1,2,3,4-tetrahydronaphthalen-1-yl)ureido)picolinamide], for which the IC50 in test [1] was 1 to 5 nM; on p38 alpha it was less than 1 nM.
The matching figures for `CN(C)CCNC(=O)c1cc(NC(=O)N[C@H]2CC[C@@H](Oc3ccc4nnc([C@]5(C)CCCN5C)n4c3)c3ccccc32)cc(C(C)(C)C)n1` [Example 62, 6-(tert-Butyl)-N-(2-(dimethylamino)ethyl)-4-(3-((1S,4R)-4-((3-((S)-1,2-dimethylpyrrolidin-2-yl)-[1,2,4]triazolo[4,3-a]pyridin-6-yl)oxy)-1,2,3,4-tetrahydronaphthalen-1-yl)ureido)picolinamide]: greater than 5 nM and less than 1 nM.
The like results for `CN1CCN(C(=O)c2nc(NC(=O)N[C@H]3CC[C@@H](Oc4ccc5nnc(C(C)(C)C)n5c4)c4ccccc43)cc(C(C)(C)C)n2)CC1` [Example 128, 1-(6-(tert-butyl)-2-(4-methylpiperazine-1-carbonyl)pyrimidin-4-yl)-3-((1S,4R)-4-((3-(tert-butyl)-[1,2,4]triazolo[4,3-a]pyridin-6-yl)oxy)-1,2,3,4-tetrahydronaphthalen-1-yl)urea] were, in that order, greater than 5 nM and less than 1 nM.
